pIC50: −log10 of the molar value.
How the values were obtained:
COX-1 = molecular target: T1, COX-1 (Ovis aries, UniProt P05979); assay: Cayman COX Fluorescent Inhibitor Screening Assay Kit; type: biochemical
T1 construct: gene PTGS1

COX-2 = molecular target: T2, COX-2 (Homo sapiens, UniProt P35354); assay: as above; type: biochemical
T2 construct: gene PTGS2
T2 sequence (P35354 18-604): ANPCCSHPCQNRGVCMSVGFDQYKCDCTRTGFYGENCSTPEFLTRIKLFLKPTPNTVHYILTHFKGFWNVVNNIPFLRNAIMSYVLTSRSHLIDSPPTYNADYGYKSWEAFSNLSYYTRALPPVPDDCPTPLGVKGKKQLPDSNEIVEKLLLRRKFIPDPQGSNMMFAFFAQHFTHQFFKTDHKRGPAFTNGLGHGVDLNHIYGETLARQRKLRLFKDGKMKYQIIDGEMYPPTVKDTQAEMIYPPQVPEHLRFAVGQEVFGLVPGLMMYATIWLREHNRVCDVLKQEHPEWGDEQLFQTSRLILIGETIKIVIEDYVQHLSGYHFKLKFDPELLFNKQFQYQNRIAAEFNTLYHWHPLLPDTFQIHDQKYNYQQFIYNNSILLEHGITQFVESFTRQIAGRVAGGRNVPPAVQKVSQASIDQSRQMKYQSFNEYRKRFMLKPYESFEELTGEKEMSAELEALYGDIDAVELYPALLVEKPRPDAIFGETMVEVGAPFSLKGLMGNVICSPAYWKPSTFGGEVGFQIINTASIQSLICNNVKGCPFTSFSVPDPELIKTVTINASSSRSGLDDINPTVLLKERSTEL

T1 sequence (P05979 25-600): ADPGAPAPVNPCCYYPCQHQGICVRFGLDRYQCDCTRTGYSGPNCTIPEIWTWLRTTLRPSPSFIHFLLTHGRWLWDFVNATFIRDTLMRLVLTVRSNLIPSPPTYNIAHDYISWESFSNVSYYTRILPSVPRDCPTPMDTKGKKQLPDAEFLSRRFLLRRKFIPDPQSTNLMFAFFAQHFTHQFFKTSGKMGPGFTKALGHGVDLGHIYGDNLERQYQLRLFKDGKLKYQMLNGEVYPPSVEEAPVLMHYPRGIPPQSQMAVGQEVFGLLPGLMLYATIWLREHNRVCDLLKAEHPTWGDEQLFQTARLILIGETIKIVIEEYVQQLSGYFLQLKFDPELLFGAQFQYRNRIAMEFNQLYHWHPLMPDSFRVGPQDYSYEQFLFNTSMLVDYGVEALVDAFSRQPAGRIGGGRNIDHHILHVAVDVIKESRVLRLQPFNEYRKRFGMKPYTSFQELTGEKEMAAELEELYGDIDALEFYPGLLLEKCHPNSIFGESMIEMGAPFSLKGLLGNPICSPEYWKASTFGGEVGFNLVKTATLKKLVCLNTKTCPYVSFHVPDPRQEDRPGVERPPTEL

pIC50 (COX-1): 4.10
pIC50 (COX-2): 5.19
SMILES: CC(=O)N/C=C/c1ccc2c(c1)O[C@H](c1ccc(O)c(O)c1)[C@H](NC(C)=O)O2 (racemic) [compound 4, cis-2-(3′,4′-dihydroxyphenyl)-3-acetylamino-7-(N-acetyl-2″-amino-ethylene)-1,4-benzodioxane]

Source: PMC6331819, “Identification of N-Acetyldopamine Dimers from the Dung Beetle Catharsius molossus and Their COX-1 and COX-2 Inhibitory Activities” (Molecules, 2015)
